{"source": "patent US9200046B2", "about": "“Reporter system for high throughput screening of compounds and uses thereof” (priority 2011, dated 2015)", "key": {"[1]": {"tested_on": "Neh2-luciferase fusion protein in SH-SY5Y cells", "type": "cell-based, human", "protocol": "Cells were plated at the density of 25,000 cell per well using a WellMate multichannel dispenser from Matrix (Thermo Fisher Scientific) and grown overnight on DMEM/F12+GlutaMAX (100 μl per well). Then the inhibitor was added, and the plates were incubated for a fixed time interval; the medium was removed, cells lysed in 20 μL (out of which 4 μL were taken for protein measurement), then BrightGlo™ reagent (Promega) was added to the wells and luciferase activity measured on a luminometer Lmax11384 (Molecular Devices). The reporter activation was normalized to the background luminescence divided by protein concentration. Kinetics of reporter activation were measured by adding varied fixed concentrations of an inhibitor at different time points followed by simultaneous cell lysis, protein determination, and luciferase activity measurement in the whole 96-well plate; this assay format minimizes experimental error originating from the well-known instability of luciferase reagent."}, "ARE-luc reporter": {"tested_on": "ARE-luc reporter", "test": "ARE-luc reporter time-course", "type": "cell-based, human"}, "Immature neurons [2]": {"tested_on": "Immature neurons"}, "FLAG-Keap1": {"molecular_target": "T1, FLAG-Keap1 (Homo sapiens, UniProt Q14145)", "T1 construct": "expressed in transfected cells; host or cells: HEK293 (transient expression)", "T1 sequence (Q14145 whole entry)": "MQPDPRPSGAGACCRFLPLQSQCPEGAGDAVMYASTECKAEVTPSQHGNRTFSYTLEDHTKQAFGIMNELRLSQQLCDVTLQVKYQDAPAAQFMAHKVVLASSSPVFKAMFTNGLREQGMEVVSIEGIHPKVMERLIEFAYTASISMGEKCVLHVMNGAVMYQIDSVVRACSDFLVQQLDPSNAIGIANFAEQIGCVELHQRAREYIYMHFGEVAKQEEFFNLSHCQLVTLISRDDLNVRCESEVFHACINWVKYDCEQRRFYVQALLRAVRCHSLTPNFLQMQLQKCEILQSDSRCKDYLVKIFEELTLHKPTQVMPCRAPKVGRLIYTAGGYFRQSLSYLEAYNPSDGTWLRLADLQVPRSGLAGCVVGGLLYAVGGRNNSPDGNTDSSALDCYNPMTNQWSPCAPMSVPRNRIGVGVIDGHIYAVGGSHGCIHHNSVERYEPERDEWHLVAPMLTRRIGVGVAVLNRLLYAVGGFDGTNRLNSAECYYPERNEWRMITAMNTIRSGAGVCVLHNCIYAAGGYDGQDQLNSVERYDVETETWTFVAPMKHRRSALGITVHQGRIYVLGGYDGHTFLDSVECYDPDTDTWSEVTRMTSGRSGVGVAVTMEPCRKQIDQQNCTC", "type": "cell-based", "protocol": "FIG. 12. Supporting to FIG. 5. […] A: structural formulas of the compounds used; B: competition with Keap1 labeling. HEK293 cells transiently expressing FLAG-Keap1 were incubated with 200 μM competing compounds (sulforaphane, fisetin, quercetin, gedunin, TBHQ, ciclopirox, geldanamycin) and then further incubated with 10 μM sulfoxythiocarbate-alkyne (STCA) for 30 min at 37° C. FLAG-Keap1 was immunoprecipitated from cell lysates, subjected to click reaction with biotin azide on beads, and eluted with SDS-loading buffer. […] All values are presented as mean±SEM.\nKeap1 labeling experiments were performed as described previously (AHN et al., Proc. Natl. […]. USA., 107: 9590-9595 (2010)) with following modifications. HEK293 cells transiently expressing FLAG-Keap1 were incubated with 200 μM competing compounds (sulforaphane, fisetin, quercetin, gedunin, TBHQ, ciclopirox, geldanamycin) in serum-free DMEM for 1 h. After washing with PBS, cells were further incubated with 10 μM sulfoxythiocarbate-alkyne (STCA) for 30 min at 37° C. FLAG-Keap1 was immunoprecipitated from cell lysates, subjected to click reaction with biotin azide on beads, and eluted with SDS-loading buffer. Eluted samples were immunoblotted with Streptavidin-HRP (Pierce) and anti-FLAG antibodies (Sigma)."}, "astrocytes": {"tested_on": "astrocytes", "test": "Intracellular GSH levels in astrocytes", "type": "cell-based, rat"}, "primary immature neurons": {"tested_on": "primary immature neurons", "test": "Astrocyte-dependent neuroprotection in astrocyte-neuron coculture with HCA", "type": "cell-based, rat", "settings": "astrocytes pretreated 24 hr, neurons plated with HCA"}, "Nrf2-Keap1 complex": {"molecular_target": "Nrf2-Keap1 complex (Homo sapiens, UniProt Q14145)", "sequence (Q14145 whole entry, one chain of several)": "as the sequence (Q14145 whole entry) above", "test": "cell-based", "type": "cell-based", "settings": "for activation at 16 µM / activation at 32 µM: 3 h; for activation at 16 µM: read-out: Activation 100 nL; for activation at 32 µM: read-out: Activation 200 nL; for 100 nL (luminescence) / 200 nL (luminescence): Table 2, screen run at 16 and 32 μM, 3 hr; for 100 nL (luminescence): 100 nL compound; for 200 nL (luminescence): 200 nL compound"}, "Immature neurons [3]": {"tested_on": "Immature neurons", "test": "Neuronal viability of isolated immature neurons treated with compounds", "settings": "24 hours"}, "[4]": {"settings": "200 μM competing compound, HEK293 cells, then 10 μM STCA 30 min"}}, "note": "Entries after “also recorded” stand apart in the source; their conditions may differ. Read-outs that look alike come from different tables or passages of the source.", "data": [{"smiles": "CC(C)(C)c1cc(O)ccc1O", "note": "[TBHQ, tert-butylhydroquinone, reference compound]", "values": [{"measurement": "type of reporter activation by time-course", "setting": "[1]", "value": "immediate activation but gradual stabilization over time"}, {"measurement": "activation of Neh2-luc reporter", "setting": "[1]; positive control, FIG. 1B", "value": "more than 10 fold"}, {"measurement": "delay of ARE-luc reporter response", "setting": "ARE-luc reporter", "value": 3, "unit": "h"}, {"measurement": "toxicity in isolated neurons", "setting": "Immature neurons [2]", "value": "neurotoxic effects"}, {"measurement": "competition with Keap1 labeling by STCA", "setting": "FLAG-Keap1; [4]", "value": "very modest competition; also recorded: competes very poorly"}]}, {"smiles": "Cc1cc(C2CCCCC2)n(O)c(=O)c1", "note": "[ciclopirox, reference compound]", "values": [{"measurement": "competition with Keap1 labeling by STCA", "setting": "FLAG-Keap1; [4]", "value": "no competition with Keap1 labeling"}]}, {"smiles": "O=c1c(O)c(-c2ccc(O)c(O)c2)oc2cc(O)cc(O)c12", "note": "[quercetin, 3,5,7,3′,4′-pentahydroxyflavone]", "values": [{"measurement": "type of reporter activation by time-course", "setting": "[1]", "value": "immediate activation but gradual stabilization over time"}, {"measurement": "competition with Keap1 labeling by STCA", "setting": "FLAG-Keap1; [4]", "value": "very modest competition"}]}, {"smiles": "C[S+]([O-])CCCCN=C=S", "note": "(stereo not drawn) [sulforaphane, reference compound]", "values": [{"measurement": "type of reporter activation by time-course", "setting": "[1]", "value": "immediate activation but gradual stabilization over time"}, {"measurement": "competition with Keap1 labeling by STCA", "setting": "FLAG-Keap1", "value": "decent competition; also recorded: inhibits Keap1 labeling completely"}]}, {"smiles": "CC(Cc1ccc(O)c(O)c1)C(C)Cc1ccc(O)c(O)c1", "note": "(stereo not drawn) [NDGA, nordihydroguaiaretic acid]", "values": [{"measurement": "type of reporter activation by time-course", "setting": "[1]", "value": "activation via a switch or receptor"}, {"measurement": "toxicity in isolated neurons", "setting": "Immature neurons [2]", "value": "did not induce toxicity in isolated neurons"}, {"measurement": "GSH in astrocytes", "setting": "astrocytes; 24 hr, 10 μM NDGA, 24 μM gedunin, 20 μM fisetin", "value": "clearly show a boost in GSH"}, {"measurement": "competition with Keap1 labeling by STCA", "setting": "FLAG-Keap1; [4]", "value": "poorly compete with Keap1 labeling"}, {"measurement": "astrocyte-dependent neuroprotection", "setting": "primary immature neurons", "value": "induced significant neuroprotection"}]}, {"smiles": "CC(=O)O[C@@H]1C[C@H]2C(C)(C)C(=O)C=C[C@]2(C)[C@H]2CC[C@@]3(C)[C@H](c4ccoc4)OC(=O)[C@H]4O[C@]43[C@@]21C", "note": "[GEDUNIN]", "values": [{"measurement": "type of reporter activation by time-course", "setting": "[1]", "value": "immediate activation but gradual stabilization over time; also recorded: immediate effect"}, {"measurement": "GSH in astrocytes", "setting": "astrocytes", "value": "clearly show a boost in GSH"}, {"measurement": "activation at 16 µM", "setting": "Nrf2-Keap1 complex", "value": 222, "unit": "%"}, {"measurement": "activation at 32 µM", "setting": "Nrf2-Keap1 complex", "value": 184, "unit": "%"}, {"measurement": "100 nL (luminescence)", "setting": "Nrf2-Keap1 complex", "value": 4812}, {"measurement": "200 nL (luminescence)", "setting": "Nrf2-Keap1 complex", "value": 3708}, {"measurement": "competition with Keap1 labeling by STCA", "setting": "FLAG-Keap1; [4]", "value": "very modest competition; also recorded: poorly compete with Keap1 labeling"}, {"measurement": "astrocyte-dependent neuroprotection", "setting": "primary immature neurons", "value": "induced significant neuroprotection"}, {"measurement": "toxicity in isolated neurons", "setting": "Immature neurons [3]", "value": "did not induce toxicity in isolated neurons"}]}, {"smiles": "O=c1c(O)c(-c2ccc(O)c(O)c2)oc2cc(O)ccc12", "note": "[FISETIN]", "values": [{"measurement": "type of reporter activation by time-course", "setting": "[1]", "value": "activation via a switch or receptor"}, {"measurement": "GSH in astrocytes", "setting": "astrocytes", "value": "does not show the same level of enhancement"}, {"measurement": "activation at 16 µM", "setting": "Nrf2-Keap1 complex", "value": 224, "unit": "%"}, {"measurement": "activation at 32 µM", "setting": "Nrf2-Keap1 complex", "value": 38, "unit": "%"}, {"measurement": "100 nL (luminescence)", "setting": "Nrf2-Keap1 complex", "value": 3360}, {"measurement": "200 nL (luminescence)", "setting": "Nrf2-Keap1 complex", "value": 1320}, {"measurement": "competition with Keap1 labeling by STCA", "setting": "FLAG-Keap1; [4]", "value": "very modest competition; also recorded: poorly compete with Keap1 labeling"}, {"measurement": "astrocyte-dependent neuroprotection", "setting": "primary immature neurons", "value": "induced significant neuroprotection"}, {"measurement": "toxicity in isolated neurons", "setting": "Immature neurons [3]", "value": "did not induce toxicity in isolated neurons"}]}]}
